Laboratory results taken from article PMC11078746 (Nature, 2024).
Values belong to the compound of their own block, whether it stands above or below them.

Tests used:
RecQ1 = target: T1, RecQ1 (Homo sapiens, UniProt P46063); assay: RecQ selectivity ATPase assay; assay type: biochemical
T1 construct: human RecQ1-D1D2 (UniProt: P46063, Asp62–Ser482); His tag (N); made in house; host or cells: E. coli BL21(DE3), by the 'analogous procedure'
Experimental: (§1) DNA sequence allowing expression of human BLM-D1D2RH (UniProt P54132: Lys640–Gly1298) fused at the amino-terminal end to His tag followed by TEV-cleavage site, was inserted into a pET-derived vector. Protein expression was performed in BL21(DE3) cells after IPTG induction. Cells were collected and resuspended in lysis buffer (50 mM NaH2PO4, 300 mM NaCl, 1 mM TCEP, 20 mM imidazole, pH 8.0) supplemented with 2 mM MgCl2, benzonase and 0.5 mM AEBSF. Cells were lysed with an Emulsiflex C3 homogenizer. After ultracentrifugation, the lysate was loaded onto a HisTrap HP column. Bound protein was eluted with an imidazole gradient in lysis buffer. The amino-terminal tag was cleaved with TEV protease. Cleaved protein was loaded on Resource S ion-exchange column and eluted with a NaCl gradient in IEX buffer (20 mM Tris, 1 mM TCEP, 10% glycerol, 20 mM NaCl, pH 7.4). As a final step, BLM-D1D2RH protein was concentrated and loaded onto the Superdex 75 gel-filtration column pre-equilibrated with SEC buffer (50 mM Tris, 150 mM NaCl, 10% glycerol, pH 7.4). Eluted target protein was concentrated and frozen on dry ice. An analogous procedure was used for the expression and purification of human RecQ1-D1D2 (UniProt: P46063, Asp62–Ser482) and Human RecQ5-D1D2 (UniProt: O94762, Asp11–Trp453) proteins.
(§2) We used an ADP-Glo assay kit (Promega) to monitor ATP hydrolysis. A 45-oligonucleotide with the following sequence: […], referred to as FLAP26, as described previously[45] was purchased from IDT (Integrated DNA Technologies) and used as a DNA substrate. […] The reaction was started by addition of 2.5 μl of ssDNA substrate at 0.4 nM and incubated for 30 min at room temperature. The reaction was stopped with the addition of 5 μl of the first ADP-Glo reagent and incubated for 1 h to remove the excess amount of ATP. Then, 10 μl of ATP detection reagent was added and incubated for an additional hour before reading. The luminescence output was recorded using the Pherastar reader, with a 5 min delay before reading. Each concentration of compounds was tested in duplicates in the assay plate. The compound potency (IC50 value) was determined using custom software (Novartis Helios software application) with a four-parameter sigmoid Hill-curve model. After normalization of activity values for the wells to percentage inhibition (percentage inhibition = [(high control activity − sample activity)/(high control activity − low control activity)] × 100), IC50 fitting was performed from the duplicate determinations present on each plate.
(§3) The same ATPase assay protocol was used with the three other RecQ protein constructs to assess the selectivity over WRN. Time-course experiments were performed to determine the best enzymatic assay conditions for each RecQ protein. The experiments were run as described above with 10 nM RecQ1 protein construct with 10 nM ssDNA substrate, 2 nM BLM protein construct with 0.2 nM ssDNA substrate and 0.5 nM RecQ5 protein construct with 2 nM ssDNA substrate, respectively.

RecQ5 = target: T2, RecQ5 (Homo sapiens, UniProt O94762); assay: RecQ selectivity ATPase assay; assay type: biochemical
T2 construct: Human RecQ5-D1D2 (UniProt: O94762, Asp11–Trp453); His tag (N); made in house; host or cells: E. coli BL21(DE3), by the 'analogous procedure'
Experimental: as §1, §2, §3

logD / logP = assay type: physicochemical; details: 1-octanol/water, pH 7.4, 1-octanol and water at pH 7.4
Rat PK = assay type: in vivo
Experimental: PK parameters were determined by non-compartmental analysis. Intravenous bolus studies in mouse, rat and dog were performed at 1, 1 and 0.1 mg per kg respectively (Extended Data Table 1).

[1] = target: T3, WRN D1D2RH (Asn517–Pro1238) (Homo sapiens, UniProt Q14191); assay: Cy5-ATPγS binding assay using TR-FRET (ATP binding)
T3 construct: 10 nM WRN D1D2RH (protein construct (Asn517–Pro1238)); His tag (N, cleaved yes); ZZ tag (N, cleaved yes); made in house; host or cells: Sf21 insect cells (baculovirus)
Experimental: A ratio of F665 over F620 was then calculated to determine the FRET efficiency in each well. This assay protocol was used during hit optimization to build the initial structure–activity relationship and was also adapted to 1,536-well plates for screening purposes.

MDCK LE permeability = assay type: in vitro ADME, canine; details: dog, Fig. 1b
[2] = test system: WRN protein in MSI and MSS cells; assay: WRN degradation (immunoblot, ELISA); assay type: cell-based, human
Experimental: A list of all of the antibodies is provided in Supplementary Table 2. […] The plates were washed in PBS and 200 µl per well of blocking reagent added (PBS, 0.05% Tween-20, 5% skimmed milk), and the plates were incubated for a minimum of 2 h at room temperature. […] The plates were then washed and 50 µl of secondary antibody per well diluted in blocking buffer was added and the plates were incubated overnight at 4 °C. The next day, 50 µl of tertiary antibody was added per well buffer and the plates were incubated for 2 h at room temperature. […] The plates were shaken and luminescence was detected immediately on the Synergy HT microplate reader.

[3] = target: T3, WRN D1D2RH (Asn517–Pro1238); assay: ATPase activity analysis, ADP-Glo; assay type: biochemical
Experimental: as §2

SW48 xenografts = assay: SW48 xenograft efficacy, HRO761, irinotecan and combination; assay type: in vivo, mouse; details: Irinotecan 60mg/kg
Experimental: All animal studies were conducted in accordance with ethics and procedures covered by permit BS-2275 and BS-1975 issued by the Kantonales Veterinäramt Basel-Stadt and in strict adherence to guidelines of the Eidgenössisches Tierschutzgesetz and the Eidgenössische Tierschutzverordnung, Switzerland. All animal studies were approved by the internal ethics committee. All animals had access to food and water ad libitum and were identified with transponders. They were housed in a specific-pathogen-free facility in IVC racks under a 12 h–12 h light–dark cycle. To establish cell-line-derived xenograft models, 6–7-week-old female athymic nude (Crl:NU(NCr)-Foxn1^nu) or SCID-BEIGE (CB17.Cg-PrkdcscidLystbg-J/Crl) mice from Charles River were engrafted subcutaneously with 5 million tumour cells in HBSS (H6648, Sigma-Aldrich). For SNU-407, Lovo, IM95, RL95.2, Ishikawa and IGROV-1, the cells were concentrated in 50% Matrigel (354234, Corning). Patient-derived xenografts were induced and expanded by transplantation as previously described. […] For the efficacy experiment, mice were randomized into groups (n = 5–6) for a mean tumour size of 100–150 mm^3. […] Blood samples were collected on day 7 and 91. […] Tumour responses are reported with the measures of tumour volumes from the treatment start. […] Animals were randomized (n = 3) and tumour samples were collected at 0, 1, 4, 8 and 24 h on the first day and then collected 4 h after the last treatment on day 3, 8, 10, 14 (including a 24 h timepoint), 17 and 21. Tumours were excised, weighed, either frozen in liquid nitrogen and cryogenic dry pulverized with the CryoPrep system (model CP-02, Covaris) or processed to FFPE after fixation. […] On day 12, blood samples were collected for PK analysis. On the last day (3 h after the last treatment), tumours were excised, weighed, frozen in liquid nitrogen and cryogenic dry pulverized for PD analysis.

WRN (D1D2RH) = target: T4, WRN (D1D2RH) (Homo sapiens, UniProt Q14191); assay: Radioactive binding assay using an SPA (saturation binding); details: 10 nM WRN
T4 construct: N-terminal Avi Tag-WRN(Asn517–Pro1238)
Experimental: A total of 20 μl N-terminal Avi tag-WRN protein (Asn517-Pro1238) in 30 mM Tris pH 7.5, 30 mM NaCl, […], 0.02% BSA, 0.1% Pluronic F127, containing or not a fivefold higher concentration of dsDNA as compared to protein concentration, were incubated with 20 μl [^3H]-probe 6 (Extended Data Fig. 2f) for 1 h at room temperature. Then, 10 μl Streptavidin-coated PVT scintillation proximity assay (SPA) beads (Perkin Elmer, RPNQ0009) were added and the plate was read after 30 min in a TopCount luminescence reader (1 min, delay,1 min per well). The final assay concentrations were 10 nM WRN, 50 nM dsDNA (for the condition with dsDNA), a concentration range of radioligand as shown in the graphs and 50 μg per well of PVT SPA beads. The dsDNA was the same substrate as used in the DNA-unwinding assay (without labels).

[4] = target: T5, WRN D1D2 WT (WRN 517–945) (Homo sapiens, UniProt Q14191); assay: ATPase assay; details: read-out: Biochemical IC50 ATPase WRN D1D2 WT
T5 construct: the minimal D1–D2 helicase core (WRN 517–945)
Experimental: as §2

WRN full length = target: T6, WRN full length (Homo sapiens, UniProt Q14191); assay: ATPase assay; details: read-out: Biochemical IC50 ATPase WRN full length
T6 construct: ATPase WRN full length: 0.02; made in house
Experimental: as §2

WRN D1D2 C727A = target: T7, WRN D1D2 C727A (Homo sapiens, UniProt Q14191, C727A); assay: ATPase assay; details: read-out: Biochemical IC50 ATPase WRN D1D2 C727A
T7 construct: the minimal D1–D2 helicase core (WRN 517–945)
Experimental: as §2

WRN D1D2 C727S = target: T8, WRN D1D2 C727S (Homo sapiens, UniProt Q14191, C727S); assay: ATPase assay; details: read-out: Biochemical IC50 ATPase WRN D1D2 C727S
T8 construct: the minimal D1–D2 helicase core (WRN 517–945)
Experimental: as §2

[5] = author rebuttal, compound numbers of an earlier manuscript version, read-out: Cy5-ATPγS binding assay in TR-FRET - IC50

T3 sequence (Q14191 517-1238): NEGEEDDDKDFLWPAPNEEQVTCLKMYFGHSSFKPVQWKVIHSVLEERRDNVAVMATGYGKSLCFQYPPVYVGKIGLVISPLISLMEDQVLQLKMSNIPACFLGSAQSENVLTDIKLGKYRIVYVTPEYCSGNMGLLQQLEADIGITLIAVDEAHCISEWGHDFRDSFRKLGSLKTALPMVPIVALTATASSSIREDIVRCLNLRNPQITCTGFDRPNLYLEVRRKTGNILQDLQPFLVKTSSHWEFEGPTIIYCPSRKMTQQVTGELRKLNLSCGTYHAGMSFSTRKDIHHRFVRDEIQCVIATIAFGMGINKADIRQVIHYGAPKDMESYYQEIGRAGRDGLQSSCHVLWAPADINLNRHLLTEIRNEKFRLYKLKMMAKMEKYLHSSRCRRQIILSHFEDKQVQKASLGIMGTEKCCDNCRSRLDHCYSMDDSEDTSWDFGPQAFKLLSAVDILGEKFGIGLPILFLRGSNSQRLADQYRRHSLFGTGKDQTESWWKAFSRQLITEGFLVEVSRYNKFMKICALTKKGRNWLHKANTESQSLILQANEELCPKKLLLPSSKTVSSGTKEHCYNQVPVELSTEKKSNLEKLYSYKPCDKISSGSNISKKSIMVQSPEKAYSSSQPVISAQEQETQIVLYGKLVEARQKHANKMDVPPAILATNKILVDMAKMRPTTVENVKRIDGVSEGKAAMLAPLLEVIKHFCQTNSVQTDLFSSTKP
T4 sequence (Q14191 517-1238): as above
T7 sequence (Q14191 517-945 C727A): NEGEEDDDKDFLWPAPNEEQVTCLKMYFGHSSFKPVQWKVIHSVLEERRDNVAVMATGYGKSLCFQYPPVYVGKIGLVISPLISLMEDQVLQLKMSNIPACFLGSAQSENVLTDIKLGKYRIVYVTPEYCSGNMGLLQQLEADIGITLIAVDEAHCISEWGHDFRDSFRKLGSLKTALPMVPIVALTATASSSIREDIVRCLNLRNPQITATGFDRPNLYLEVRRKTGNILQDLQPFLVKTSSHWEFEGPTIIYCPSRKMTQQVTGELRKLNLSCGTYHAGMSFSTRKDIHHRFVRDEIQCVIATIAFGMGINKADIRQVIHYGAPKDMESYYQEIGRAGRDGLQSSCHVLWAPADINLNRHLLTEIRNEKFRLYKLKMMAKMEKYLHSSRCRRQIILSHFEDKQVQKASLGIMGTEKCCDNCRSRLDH
T1 sequence (P46063 62-482): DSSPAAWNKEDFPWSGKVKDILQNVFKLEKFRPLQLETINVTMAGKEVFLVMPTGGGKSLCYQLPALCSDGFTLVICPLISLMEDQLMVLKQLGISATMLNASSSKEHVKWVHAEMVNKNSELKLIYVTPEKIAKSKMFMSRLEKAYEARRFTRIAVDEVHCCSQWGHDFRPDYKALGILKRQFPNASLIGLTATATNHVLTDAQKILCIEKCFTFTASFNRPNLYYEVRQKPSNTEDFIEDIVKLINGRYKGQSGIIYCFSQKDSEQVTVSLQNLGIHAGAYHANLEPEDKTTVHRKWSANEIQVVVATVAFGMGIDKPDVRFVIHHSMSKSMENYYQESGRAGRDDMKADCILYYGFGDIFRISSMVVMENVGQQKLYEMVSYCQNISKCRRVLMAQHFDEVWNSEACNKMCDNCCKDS
T5 sequence (Q14191 517-945): as the sequence (Q14191 517-945 C727A) above, with A211C counted along it
T2 sequence (O94762 11-453): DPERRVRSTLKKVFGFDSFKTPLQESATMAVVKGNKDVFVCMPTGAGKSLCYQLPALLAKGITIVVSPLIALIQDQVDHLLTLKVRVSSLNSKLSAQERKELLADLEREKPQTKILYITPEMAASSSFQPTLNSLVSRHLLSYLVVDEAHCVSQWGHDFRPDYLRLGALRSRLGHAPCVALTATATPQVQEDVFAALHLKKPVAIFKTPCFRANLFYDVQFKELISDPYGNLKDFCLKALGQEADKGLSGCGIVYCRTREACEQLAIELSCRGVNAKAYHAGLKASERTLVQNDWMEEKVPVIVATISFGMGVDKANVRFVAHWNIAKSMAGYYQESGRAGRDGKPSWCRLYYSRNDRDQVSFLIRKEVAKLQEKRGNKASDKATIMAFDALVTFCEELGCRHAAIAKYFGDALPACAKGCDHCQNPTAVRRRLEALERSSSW
T6 sequence (Q14191 whole entry): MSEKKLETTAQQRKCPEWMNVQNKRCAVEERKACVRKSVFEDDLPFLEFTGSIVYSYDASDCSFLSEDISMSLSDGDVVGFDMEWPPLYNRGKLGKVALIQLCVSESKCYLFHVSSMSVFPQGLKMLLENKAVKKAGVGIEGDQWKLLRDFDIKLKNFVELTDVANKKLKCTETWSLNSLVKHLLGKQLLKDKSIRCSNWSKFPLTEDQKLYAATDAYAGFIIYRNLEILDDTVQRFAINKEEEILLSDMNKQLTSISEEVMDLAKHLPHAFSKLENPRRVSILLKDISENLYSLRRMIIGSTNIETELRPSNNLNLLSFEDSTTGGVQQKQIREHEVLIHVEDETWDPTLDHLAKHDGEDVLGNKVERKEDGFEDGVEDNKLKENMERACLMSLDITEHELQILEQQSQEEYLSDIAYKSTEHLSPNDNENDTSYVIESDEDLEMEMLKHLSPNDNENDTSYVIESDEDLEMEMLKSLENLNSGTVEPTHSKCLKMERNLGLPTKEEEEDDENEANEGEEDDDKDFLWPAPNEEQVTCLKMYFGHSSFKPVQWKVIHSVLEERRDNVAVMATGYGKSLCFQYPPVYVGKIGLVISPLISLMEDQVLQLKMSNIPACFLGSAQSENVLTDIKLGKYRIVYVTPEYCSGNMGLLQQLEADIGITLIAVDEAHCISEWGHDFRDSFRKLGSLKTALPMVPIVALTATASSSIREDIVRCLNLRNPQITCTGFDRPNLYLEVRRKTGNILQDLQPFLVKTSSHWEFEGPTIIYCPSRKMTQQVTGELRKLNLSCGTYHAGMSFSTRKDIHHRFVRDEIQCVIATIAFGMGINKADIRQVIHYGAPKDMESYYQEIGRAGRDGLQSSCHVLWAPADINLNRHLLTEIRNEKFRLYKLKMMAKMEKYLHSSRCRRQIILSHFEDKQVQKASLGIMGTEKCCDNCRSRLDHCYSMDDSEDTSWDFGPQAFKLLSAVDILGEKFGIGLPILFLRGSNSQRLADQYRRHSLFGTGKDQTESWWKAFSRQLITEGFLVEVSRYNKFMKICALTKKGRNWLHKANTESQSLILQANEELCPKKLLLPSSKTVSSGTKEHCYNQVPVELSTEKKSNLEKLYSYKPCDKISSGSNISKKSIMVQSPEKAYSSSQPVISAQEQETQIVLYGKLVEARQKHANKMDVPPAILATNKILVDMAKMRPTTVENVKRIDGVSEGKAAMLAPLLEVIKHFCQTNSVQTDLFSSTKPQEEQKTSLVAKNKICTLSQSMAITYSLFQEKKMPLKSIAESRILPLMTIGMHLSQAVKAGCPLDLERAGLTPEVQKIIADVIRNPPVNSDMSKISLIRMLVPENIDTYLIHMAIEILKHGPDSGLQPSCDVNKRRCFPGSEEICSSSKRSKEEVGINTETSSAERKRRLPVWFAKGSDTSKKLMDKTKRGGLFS
T8 sequence (Q14191 517-945 C727S): as the sequence (Q14191 517-945 C727A) above, with A211S counted along it

- IC50 (RecQ1): > 100000 nM
- IC50 (RecQ5): > 100000 nM
- logD (logD / logP): 3.7
- Rat PK, oral bioavailability (F) (Rat PK): 0 % F
- IC50 [1, 5]: 9 nM
- Papp (MDCK LE permeability): 0.2 ×10⁻⁶ cm/s
Compound: Cc1c(N2CCN(C(=O)c3c(F)ccc(F)c3O)CC2)c(=O)n2nc(C3=CCOCC3)nc2n1CC(=O)Nc1ccc(C(F)(F)F)cc1 [compound 2]

- IC50 ([1]; WRN D1D2RH, Fig. 1b, Extended Data Fig. 2b, read-out: ATP binding IC50): 3000 nM
- IC50 [1, 5]: 3300 nM
- IC50 ([3]; Fig. 1b, ATP concentration not given, read-out: ATPase IC50): 22000 nM
Compound: Cc1cccc(NC(=O)Cn2c(C)cc(=O)n3nc(-c4cccs4)nc23)c1C [compound 1]

- IC50 [1, 5]: 13 nM
- IC50 [4]: 250 nM
- IC50 (WRN full length): 110 nM
- IC50 (WRN D1D2 C727A): 1100 nM
- IC50 (WRN D1D2 C727S): 25000 nM
- IC50 ([3]; Extended Data Fig. 2b, read-out: Biochemical IC50 ATPase WRN D1D2RH): 270 nM
- mode of action with regard to DNA ([3]; KDNA determination, 0.5 nM WRN D1D2RH, 100 µM ATP): non-competitive mode of action
Compound: CC(=O)N1CCN(c2c(C)n(CC(=O)Nc3ccc(Cl)cc3)c3nc(N4CCN(C(=O)OC(C)(C)C)CC4)nn3c2=O)CC1 [compound 5]

More lines, now with the values behind:

Compound: CC[C@@]1(O)C(=O)OCc2c1cc1n(c2=O)Cc2cc3ccccc3nc2-1 [camptothecin, reference compound]
- WRN degradation, dependence on MSI/MSS status [2]: irrespective of their MSI/MSS status

Compound: CCc1c2c(nc3ccc(OC(=O)N4CCC(N5CCCCC5)CC4)cc13)-c1cc3c(c(=O)n1C2)COC(=O)[C@]3(O)CC [irinotecan, reference compound]
- Mean TVol (mm3) (SW48 xenografts; day 0 post 1st dose): 254.88 mm3
- Mean TVol (mm3) (SW48 xenografts; day 4 post 1st dose): 329.29 mm3
- Mean TVol (mm3) (SW48 xenografts; day 7 post 1st dose): 550.55 mm3
- Mean TVol (mm3) (SW48 xenografts; day 11 post 1st dose): 635.45 mm3
- Mean TVol (mm3) (SW48 xenografts; day 14 post 1st dose): 640.95 mm3
- Mean TVol (mm3) (SW48 xenografts; day 18 post 1st dose): 669.98 mm3
- Mean TVol (mm3) (SW48 xenografts; day 21 post 1st dose): 833.51 mm3

Compound: [3H]c1cc(C(F)(F)F)cc([3H])c1NC(=O)Cn1c(C)c(N2CCN(C(C)=O)CC2)c(=O)n2nc(N3CCN(C(C)=O)CC3)nc12 [compound 6]
- Kd (WRN (D1D2RH); in absence of dsDNA): 10 nM
- Kd (WRN (D1D2RH); in presence of 50 nM dsDNA): 14 nM
